Structures can show the parent of a compound that is named as a salt. Activity calls are given as the source filed them. No cut-off for these calls is given here.
Legend:
A549 [1] = assay: Induction of apoptosis in human A549 cells assessed as increase in intracellular ROS at 1 uM after 24 hrs using DCFH-DA by spectrofluorimetry relative to control; type: functional, cell-based
A549 [2] = assay: Cytotoxicity against human A549 cells after 48 hrs by SRB assay; type: functional, cell-based; details: A549, 48 h
THP-1 = assay: Cytotoxicity against human THP1 cells after 48 hrs by SRB assay; type: functional, cell-based; details: THP-1, 48 h
A549 [3] = assay: Induction of apoptosis in human A549 cells assessed as caspase 9 activation at 1 uM after 12 hrs […] by colorimetry relative to control; type: functional, cell-based
MCF7 = assay: Cytotoxicity against human MCF7 cells after 48 hrs by SRB assay; type: functional, cell-based; details: MCF7, 48 h
A549 [4] = assay: Induction of apoptosis in human A549 cells assessed as increase in hypodiploid sub-G1 DNA fraction at 10 uM after 24 hrs by propidium iodide-based flow cytometric analysis (reference value: 3 %); type: functional
[5] = Cytotoxicity against human PC3 cells after 48 hrs by SRB assay; type: functional, cell-based; details: PC-3, 48 h
A549 [6] = assay: Induction of apoptosis in human A549 cells assessed as loss of membrane potential at 1 uM after 24 hrs using Rhodamine-123 by flow cytometric analysis (Rvb =12.1 %); type: functional
A549 [7] = assay: Induction of apoptosis in human A549 cells assessed as increase in hypodiploid sub-G1 DNA fraction at 1 uM after 24 hrs by propidium iodide-based flow cytometric analysis (reference value: 3 %); type: functional
A549 [8] = assay: Induction of apoptosis in human A549 cells assessed as caspase 3 activation at 1 uM after 12 hrs […] by colorimetry relative to control; type: functional, cell-based
CHO [9] = assay: Cytotoxicity against CHO cells assessed as change in LDH at 20 uM after 48 hrs by LDH colorimetric assay relative to control; type: cell-based, Cricetulus griseus; details: chinese hamster
CHO [10] = assay: Cytotoxicity against CHO cells assessed as change in LDH at 1 uM after 48 hrs by LDH colorimetric assay relative to control; type: cell-based, Cricetulus griseus; details: chinese hamster
A549 [11] = assay: Induction of apoptosis in human A549 cells assessed as loss of membrane potential at 2 uM after 24 hrs using Rhodamine-123 by flow cytometric analysis (Rvb =12.1 %); type: functional
A549 [12] = assay: Induction of apoptosis in human A549 cells assessed as increase in hypodiploid sub-G1 DNA fraction at 2 uM after 24 hrs by propidium iodide-based flow cytometric analysis (reference value: 3 %); type: functional
CHO [13] = assay: Cytotoxicity against CHO cells assessed as change in LDH at 10 to 100 uM after 48 hrs by LDH colorimetric assay relative to control; type: cell-based, Cricetulus griseus; details: chinese hamster

Structure (SMILES) | Activity (A549 [1]) | IC50 (A549 [2]) | IC50 (THP-1) | Activity (A549 [3]) | IC50 (MCF7) | Activity (A549 [4]) | IC50 [5] | Activity (A549 [6]) | Activity (A549 [7]) | Activity (A549 [8]) | Activity (CHO [9]) | Activity (CHO [10]) | Activity (A549 [11]) | Activity (A549 [12]) | Activity (CHO [13])
COc1ccccc1/C=C/[C@@]12C=CC3(OO1)C(C)(C)CCC[C@]3(C)O2 (mixture of isomers) | Active | 6500 nM | 13 µM | Active | 11000 nM | 83% | > 100 µM | 99.8% | 68.2% | Active |  |  |  |  | 
CO[C@@]12[C@H](COC(N)=O)C3=C(C(=O)C(C)=C(N)C3=O)N1C[C@@H]1N[C@@H]12 [MITOMYCIN] |  | 40 nM | 0.1 µM |  | 200 nM |  |  |  |  |  |  |  |  |  | 
Cc1ccccc1/C=C/[C@@]12C=CC3(OO1)C(C)(C)CCC[C@]3(C)O2 (mixture of isomers) | Active | 4300 nM | 4 µM | Active | 10 nM | 69.8% | 20 µM | 50.5% | 67% | Active |  |  |  |  | 
CC1(C)CCC[C@]2(C)O[C@]3(/C=C/c4ccccc4Cl)C=CC12OO3 (mixture of isomers) | Active | 900 nM | 3.5 µM | Active | 1000 nM | 61% | 13 µM | 99.7% | 16.9% | Active |  |  |  |  | 
COc1cccc2c1C(=O)c1c(O)c3c(c(O)c1C2=O)C[C@@](O)(C(=O)CO)C[C@@H]3O[C@H]1C[C@H](N)[C@H](O)[C@H](C)O1 [DOXORUBICIN HYDROCHLORIDE] |  | 100 nM |  |  |  |  |  |  |  |  |  |  |  |  | 
COc1ccc(/C=C/[C@@]23C=CC4(OO2)C(C)(C)CCC[C@]4(C)O3)c(OC)c1OC (mixture of isomers) | Active | 7000 nM | 25 µM | Active | 18000 nM | 74.7% | > 100 µM | 91.7% | 60.4% | Active |  |  |  |  | 
COc1ccc(/C=C/[C@@]23C=CC4(OO2)C(C)(C)CCC[C@]4(C)O3)cc1OC (mixture of isomers) | Active | 12000 nM | 11 µM | Active | 10000 nM | 69.8% | > 100 µM | 99.7% | 67.9% | Active |  |  |  |  | 
CC1(C)CCC[C@]2(C)O[C@]3(/C=C/c4ccccc4[N+](=O)[O-])C=CC12OO3 (mixture of isomers) | Active | 1 nM | 2.8 µM | Active | 7700 nM | 76% | > 100 µM | 99.7% | 74.8% | Active | 135% | 108% |  |  | 
CC[C@@]1(O)C(=O)OCc2c1cc1n(c2=O)Cc2cc3ccccc3nc2-1 [CAMPTOTHECIN] |  |  |  |  |  |  |  |  |  |  |  |  | 96.1% | 49% | 126%
CC1(C)CCC[C@]2(C)O[C@]3(/C=C/c4cccc5ccccc45)C=CC12OO3 (mixture of isomers) | Active | 20 nM | 7.4 µM | Active | 700 nM | 80.3% | > 100 µM | 99.8% | 66.8% | Active |  |  |  |  | 
O=c1[nH]cc(F)c(=O)[nH]1 [FLUOROURACIL] |  |  | 0.04 µM |  |  |  |  |  |  |  |  |  |  |  | 
CC1(C)CCC[C@]2(C)O[C@]3(/C=C/c4ccc(Cl)c(Cl)c4)C=CC12OO3 (mixture of isomers) | Active | 4100 nM | 0.2 µM | Active | 4200 nM | 71.7% | 21 µM | 63% | 48.2% | Active |  |  |  |  | 
CC1(C)CCC[C@]2(C)O[C@]3(/C=C/c4ccccc4F)C=CC12OO3 (mixture of isomers) | Active | 3 nM | 0.4 µM | Active | 100 nM | 74.8% | > 100 µM | 99.8% | 60.7% | Active |  |  |  |  | 
CC1(C)CCC[C@]2(C)O[C@]3(/C=C/c4ccccc4Br)C=CC12OO3 (mixture of isomers) | Active | 2000 nM | 0.1 µM | Active | 1300 nM | 78.2% | > 100 µM | 99.8% | 44.9% | Active |  |  |  |  | 
